According to patent US20140329854A1, “NOVEL HETEROCYCLIC COMPOUNDS USEFUL IN SIRTUIN BINDING AND MODULATION” (SMB Innovation, priority 2011, published 2014):
Where two headings read alike, the source gives them in different places. Values belong to the compound of their own block, whether it stands above or below them.

Key:
SIRT1 = target: T1, SIRT1 (Homo sapiens, UniProt Q96EB6); assay: CISBIO HTRF SIRT1 assay of SIRT1 peptide deacetylation, modified by excluding NAD+; assay type: biochemical; conditions: for Modulation of SIRT1 deacetylating activity (in words): dose response, FIGS. 1-5
T1 construct: purchased Cisbio Bioassays
T1 sequence (Q96EB6 1-747): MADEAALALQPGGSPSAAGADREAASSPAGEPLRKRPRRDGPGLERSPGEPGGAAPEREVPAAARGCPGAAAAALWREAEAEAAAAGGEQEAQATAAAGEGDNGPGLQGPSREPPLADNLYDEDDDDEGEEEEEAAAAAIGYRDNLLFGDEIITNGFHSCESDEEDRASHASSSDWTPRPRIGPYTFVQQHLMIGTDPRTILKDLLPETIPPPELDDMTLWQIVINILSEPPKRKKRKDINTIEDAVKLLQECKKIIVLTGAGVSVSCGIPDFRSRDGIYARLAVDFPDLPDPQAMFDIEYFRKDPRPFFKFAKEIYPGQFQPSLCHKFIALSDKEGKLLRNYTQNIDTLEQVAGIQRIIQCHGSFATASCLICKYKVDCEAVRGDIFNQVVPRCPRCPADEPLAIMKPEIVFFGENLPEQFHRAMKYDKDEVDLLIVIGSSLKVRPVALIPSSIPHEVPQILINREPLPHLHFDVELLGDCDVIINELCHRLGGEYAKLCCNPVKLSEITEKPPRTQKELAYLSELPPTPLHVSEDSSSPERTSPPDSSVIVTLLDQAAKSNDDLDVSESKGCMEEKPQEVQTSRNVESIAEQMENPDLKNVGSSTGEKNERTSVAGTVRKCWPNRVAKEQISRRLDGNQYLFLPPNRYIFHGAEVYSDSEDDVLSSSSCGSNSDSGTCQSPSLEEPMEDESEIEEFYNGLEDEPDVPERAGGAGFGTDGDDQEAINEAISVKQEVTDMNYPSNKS
Experimental: Generally, the CISBIO HTRF® fluorescence enzyme titration assay (Cisbio Bioassays, Cisbio, 135 South Road, Bedford, Mass. 01730, USA) has provided information on inhibition and/or activation of SIRT1 deacetylation of a substrate peptide d2 containing a single acetylated lysine residue and a fluorescence probe/quencher. IC50 and AC50 values have been obtained. The assay was performed in microtiter wells and involved an enzymatic step, wherein 2 μL of the substrate peptide (6 nM) is incubated with 2 μL of SIRT1 enzyme (2.5 ng) and 2 μL of compound solution in DMSO and water. Reaction with anti-acetyl cryptate produces a FRET signal giving maximum signal when no SIRT1 reaction can be detected. The detection step involves quantification of the deacetylation process using an anti-acetyl MAb labeled with Eu^3+ cryptate. The assay was modified by excluding the NAD+ cofactor and using nicotinamide as inhibition control and the compound SRT1720 as activation control. SRT 1720 is described as a SIRT1 activating compound in Pillarisetti, S. (2008).
Protocol for inhibition/activation assay:
After adding all enzymatic step ingredients the mixture is incubated at room temperature at 30 to 60 min. Then the detection reactant is added and incubated at room temperature for 5 hours and on to produce a signal. The fluorescence readout is given as percentage of signal produced with no enzyme reaction.
The cryptate is excited at 337 nm and the fluorescence is measured at 590 nm (cryptate emission wavelength) and 665 nm (d2 emission wavelength). A ratio is calculated (665/590 nm) for each well.
The figures show percentage fluorescence as a function of Log C (log of compound concentration in μM).

[1] = Solubility in DMSO stock solution; conditions: solubility in DMSO before further dilution with water to 1% DMSO
rat hepatocytes = assay: Metabolic stability in rat hepatocytes; assay type: in vitro ADME
Experimental: (§1) Stability of the six compounds in the presence of a drug metabolizing system such as human and rat hepatocytes was measured. Data were reported from the CRO in the format of hepatic intrinsic clearance (CLint) in mL/min/kg. These CLint data were converted using the well-stirred equation
(§2) to a whole body clearance (CLh, hepatic clearance), which is more directly physiologically interpreted (Qh, hepatic blood flow rate, mL/min/kg).

human hepatocytes = assay: Metabolic stability in human hepatocytes; assay type: in vitro ADME
Experimental: as §1, §2

[2] = test system: CYP1A2, CYP2C9, CYP2C19, CYP2D6, CYP3A4; assay: CYP inhibition in human liver microsomes
[3] = test system: CYP1A2, 2C9, 2C19, 2D6, and 3A4; conditions: microsomes
[4] = SIRT1 activation, no NAD+ cofactor, average n = 3, read-out: AC50 in μM, average, n = 3
[5] = SIRT1 activation, no NAD+ cofactor, single experiment of FIGS. 1-4, read-out: AC50 in μM, n = 1
[6] = average AC50 values, n = 6, read-out: AC50

IC50 (SIRT1; SIRT1 inhibition, no NAD+ cofactor, n = 1, FIG. 5): 0.5 µM | Modulation of SIRT1 deacetylating activity (in words) (SIRT1): clear inhibition | Concentration of compound in DMSO stock solution [1]: 200000 µM
Structure (SMILES): NC(=O)c1cc(C(=O)Nc2ccccc2O)c[nH]1 [Compound 17, 4-N(2-hydroxyphenyl)pyrrol-2,4-dicarboxamide]

AC50 (SIRT1; [6]): 116 µM
Structure (SMILES): NC(=O)c1ccc(C(=O)Nc2cc3ccccc3cc2O)nc1 [Compound 18, 2-N(3-hydroxy-2-naphthyl)pyridine-2,5-dicarboxamide]

AC50 (SIRT1; [6]): 31.6 µM | IC50 [2]: > 5 µM
Structure (SMILES): NC(=O)c1ccc(C(=O)Nc2ccc3ccccc3c2O)nc1 [Compound 19, 2-N(1-hydroxy-2-naphthyl)pyridine-2,5-dicarboxamide]

AC50 (SIRT1; [6]): > 200 µM
Structure (SMILES): NC(=O)c1ccc(C(=O)Nc2cc(Cl)ccc2O)nc1 [Compound 23, 2-N(2-hydroxy-5-chloro-phenyl)pyridine-2,5-dicarboxamide]

IC50 [3]: > 5 µM
Structure (SMILES): COc1cccc(NC(=O)c2ccc(C(N)=O)cn2)c1O [Compound 24, 2-N(2-hydroxy-3-methoxy-phenyl)pyridine-2,5-dicarboxamide]

AC50 (SIRT1; [6]): 175 µM
Structure (SMILES): COc1cc2ccccc2c(NC(=O)c2ccc(C(N)=O)cn2)c1O [Compound 28, 2-N(2-hydroxy-3-methoxy-1-naphthyl)pyridine-2,5-dicarboxamide]

AC50 (SIRT1; [6]): 113 µM | IC50 [2]: > 5 µM
Structure (SMILES): NC(=O)c1ccc(C(=O)Nc2c(O)ccc3cc(Cl)ccc23)nc1 [Compound 29, 2-N(2-hydroxy-6-chloro-1-naphthyl)pyridine-2,5-dicarboxamide]

More lines, now with the values behind:

Structure (SMILES): NC(=O)c1ccc(C(=O)Nc2ccccc2O)nc1 [Compound 2, 2-N(2-hydroxyphenyl)pyridine-2,5-dicarboxamide]
AC50 (SIRT1; [4]): 348 µM | AC50 (SIRT1; [5]): 316 µM | Modulation of SIRT1 deacetylating activity (in words) (SIRT1): clear activation | Concentration of compound in DMSO stock solution [1]: 200000 µM

Structure (SMILES): NC(=O)c1ccc(C(=O)Nc2ccc(O)c3ccccc23)nc1 [Compound 4, 2-N(4-hydroxy-1-naphthyl)pyridine-2,5-dicarboxamide]
Concentration of compound in DMSO stock solution [1]: 20000 µM

Structure (SMILES): NC(=O)c1ccc(C(=O)Nc2cccc3c(O)cccc23)nc1 [Compound 5, 2-N(5-hydroxy-1-naphthyl)pyridine-2,5-dicarboxamide]
Concentration of compound in DMSO stock solution [1]: 20000 µM

Structure (SMILES): NC(=O)c1ccc(C(=O)Nc2cccc3cc(O)ccc23)nc1 [Compound 6, 2-N(6-hydroxy-1-naphthyl)pyridine-2,5-dicarboxamide]
Concentration of compound in DMSO stock solution [1]: 100000 µM

Structure (SMILES): CCOc1ccc2ccc(=O)oc2c1 [Compound 7EC, reference compound]
% Qh (rat) (rat hepatocytes; CLh as % of hepatic blood flow, rat Qh = 55 mL/min/kg): 66.0% | rat CLh (rat hepatocytes; hepatic clearance from CLint by well-stirred equation, rat Qh = 55 mL/min/kg): 36.3 mL/min/kg | rat CLint (rat hepatocytes; rat hepatocytes, hepatic intrinsic clearance): 107 mL/min/kg | % Qh (human) (human hepatocytes; CLh as % of hepatic blood flow, human Qh = 21 mL/min/kg): 82.5% | hu CLh (human hepatocytes; hepatic clearance from CLint by well-stirred equation, human Qh = 21 mL/min/kg): 17.3 mL/min/kg | hu CLint (human hepatocytes; human hepatocytes, hepatic intrinsic clearance): 99 mL/min/kg

Structure (SMILES): NC(=O)c1ccc(C(=O)Nc2cccc3c(O)cccc23)cn1 [Compound 10, 5-N(5-hydroxy-1-naphthyl)pyridine-2,5-dicarboxamide]
Concentration of compound in DMSO stock solution [1]: 20000 µM

Structure (SMILES): NC(=O)c1ccc(C(=O)Nc2cccc3cc(O)ccc23)cn1 [Compound 12, 5-N(6-hydroxy-1-naphthyl)pyridine-2,5-dicarboxamide]
Concentration of compound in DMSO stock solution [1]: 20000 µM

Structure (SMILES): NC(=O)c1cccc(C(=O)Nc2ccc(O)cc2O)n1 [Compound 13, 2-N(2,4-dihydroxyphenyl)pyridine-2,6-dicarboxamide]
AC50 (SIRT1; [4]): 647 µM | AC50 (SIRT1; [5]): 105 µM | Modulation of SIRT1 deacetylating activity (in words) (SIRT1): clear activation | Concentration of compound in DMSO stock solution [1]: 20000 µM

Structure (SMILES): NC(=O)c1ccc2cc(C(=O)Nc3ccc(O)cc3)ccc2n1 [Compound 14, 6-N(4-hydroxyphenyl)quinolin-2,6-dicarboxamide]
Concentration of compound in DMSO stock solution [1]: 200000 µM

Structure (SMILES): NC(=O)c1ccc2cc(C(=O)Nc3ccccc3O)ccc2n1 [Compound 15, 6-N(2-hydroxyphenyl)quinolin-2,6-dicarboxamide]
Concentration of compound in DMSO stock solution [1]: 10000 µM

Structure (SMILES): NC(=O)c1cc(C(=O)Nc2ccc(O)cc2)c[nH]1 [Compound 16, 4-N(4-hydroxyphenyl)pyrrol-2,4-dicarboxamide]
Concentration of compound in DMSO stock solution [1]: 200000 µM
